The values below come from patent US12037417B2, “Site-specific radioisotope-labeled antibody using IgG-binding peptide” (Kagoshima University, priority 2016, dated 2024).

One assay has as its target human IgG (Homo sapiens, UniProt P01857). Kind of assay: SPR affinity analysis of IgG-binding peptides on immobilized IgG (BIAcore T200). The following applies: for ka / kd: SPR, peptides N-terminally blocked with biotinylated PEG4, NHS group hydrolysed. Also noted: kd: unit not given here. How it is done: 0.4 M EDC (1-ethyl-3-(3-dimethylaminopropyl)-carbodiimide) and 0.1 M sulfo-NHS (sulfo-N-hydroxysuccinimide) were mixed in equal amounts and then injected onto a CMS sensor chip loaded in BIAcore T200 (GE Healthcare Japan Corp.) for 7 minutes at a flow rate of […] to activate the sensor chip. IgG was immobilized thereonto in an amount of 4000 to 5000 in terms of RU value under conditions of pH 4.0 (10 mM sodium acetate). While a HBS-EP buffer solution (0.01 M HEPES, 0.15 M NaCl, 0.005% Tween 20, and 3 mM EDTA, pH 7.0) was used, binding reaction was monitored by the injection of the peptide at a concentration of 10 nM to 2 μM for 180 seconds at a flow rate of […]. Then, dissociation reaction was assayed by washing with a buffer solution for 600 seconds. Binding parameters were analyzed using BIAevalution T100 software.

Another assay concerns the target T1, hIgG (Homo sapiens, UniProt P01857).
T1 construct: purchased Chugai Pharmaceutical Co., Ltd
Put plainly: ELISA of biotinylated IgG-binding peptide on plate-adsorbed hIgG. To be noted: peptide unmodified with cross-linking agent. The protocol: A 0.1 M NaHCO3 solution containing each protein (IgG (Chugai Pharmaceutical Co., Ltd.), IgA (Athens Research & Technology, Inc.), or bovine gelatin (Wako Pure Chemical Industries, Ltd.)) (50 ng (0.33 pmol)/μ1/well) was added to wells of a 96-well microplate (Nunc® MaxiSorp), and the plate was left overnight at room temperature to adsorb each protein onto the surface of the plate. After blocking with 0.5% BSA, a biotinylated IgG-binding peptide modified with DSG (molar ratio: 0, 1, 2, 5, or 10), prepared in the same way as in Example 2 was added to each well. After 1 hour, the reaction was terminated by the addition of 1 M Tris-HCl (pH 7.0) at 3 μL/well. SA-HRP (Vector Laboratories, Inc.) diluted 2000-fold with 0.5% BSA was added thereto at 50 μL/well and reacted at room temperature for 1 hour. Then, the plate was washed five times with 0.1% PBST. Then, a TMB solution (Wako Pure Chemical Industries, Ltd.) was used in the color development of HRP. After 5-minute chromogenic reaction, the absorbance at 450 nm was measured using an ELISA plate reader (model 680 microplate reader (Bio-Rad Laboratories, Inc.)).
The biotinylated IgG-binding peptide modified with DSG was added at a molar ratio of 2 to hIgG (50 ng) immobilized overnight at 4° C. with a 50 ng/50 μL solution. […] The binding was detected in the same way as in (A).
On the technique in general: In an ELISA, binding on a coated surface is turned into a signal by an enzyme label.

Sequence of human IgG (P01857 1-328): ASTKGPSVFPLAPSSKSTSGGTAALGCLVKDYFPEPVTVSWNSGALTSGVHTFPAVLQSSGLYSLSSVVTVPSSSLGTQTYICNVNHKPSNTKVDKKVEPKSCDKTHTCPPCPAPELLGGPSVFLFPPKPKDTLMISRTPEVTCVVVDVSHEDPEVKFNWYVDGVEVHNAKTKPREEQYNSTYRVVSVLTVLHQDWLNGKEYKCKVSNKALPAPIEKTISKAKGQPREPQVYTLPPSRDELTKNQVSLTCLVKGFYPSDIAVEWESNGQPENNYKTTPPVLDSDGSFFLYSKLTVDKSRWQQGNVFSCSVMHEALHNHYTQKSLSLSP
T1 sequence (P01857 1-328): as above

At human IgG, “GDDCAYHK(DSS-OH)GELVWCTFH-NH2 [Type I(R8K)-DSS-OH]” yielded a ka of 1.68E+05 and a kd of 0.06136.

On to GPDCAYHRGELVWCTFH-NH2 [Type I], for which, on human IgG, the ka was determined as 1.57E+06 and the kd worked out at 0.0144.

On human IgG, “GDDCAYHK(DSG-OH)GELVWCTFH-NH2 [Type I(R8K)-DSG-OH]” returned a ka of 3.29E+05 and a kd of 0.1036.

For the substance GDDCAYHKGELVWCTFH-NH2 [Type I(R8K)], on hIgG, the “binding to hIgG (ELISA)” value is on record as “Very weak binding”. Besides, the “decrease of affinity for human IgG as compared with Type I” value at human IgG (R8K substitution versus peptide before substitution) worked out at 10 times. In addition, at human IgG, the ka is 1.25E+06 and the kd is recorded as 0.195.
